# Laboratory results as given in patent US20250179073A1, “TRICYCLIC HETEROCYCLE COMPOUNDS AS IAP ANTAGONISTS” (Ascentage Pharma (Suzhou) Co., Ltd., priority 2022, published 2025).
# Tested on: MDA-MB-231 cells
# Test: Cell proliferation assay (CellTiter-Glo), MDA-MB-231
# Assay type: cell-based
# Conditions: Homo sapiens, MDA-MB-231, 72 h, 72 h treatment, Celltiter-Glo luminescence
# Protocol: Example 238: Cell Proliferation Assay
# MDA-MB-231 and EVSA-T cells (10000 cells/well) were plated onto 96-well plates (Corning, Cat #3917) in 95 μL of medium (RPMI-1640 containing 10% FBS and MEM containing 10% FBS, respectively). Compounds with various concentrations ([…]) were added to the wells. After treatment for 72 h, 30 μL of Celltiter-Glo reagent (Promega, Cat #G7573) was added and incubated at room temperature for 15 min, then the luminescent signal was determined using a microplate reader (Biotek, SynergyH1). The inhibitor dose-response curves were analyzed using normalized IC50 regression curve fitting with control based normalization.
row,SMILES,IC50 [nM]
1,"C[C@@H]1CN(CC(=O)N2CC(C)(C)c3c2cc(N2CCOc4cc(F)ccc42)c2ncnn32)[C@@H](CN2CCOC[C@H]2C)CN1 [Compound 169, 1-(4-(7-fluoro-2,3-dihydro-4H-benzo[b][1,4]oxazin-4-yl)-8,8-dimethyl-7,8-dihydro-6H-pyrrolo[2,3-e][1,2,4]triazolo[1,5-a]pyridin-6-yl)-2-((2R,5R)-5-methyl-2-(((R)-3-methylmorpholino)methyl)piperazin-1-yl)ethan-1-one]",980
2,"C[C@@H]1CN(CC(=O)N2CC(C)(C)c3c2cc(Cc2ccc(F)cc2)n2cnnc32)[C@@H](CN2CCOC[C@H]2C)CN1 [Example 23, 1-(5-(4-fluorobenzyl)-9,9-dimethyl-8,9-dihydro-7H-pyrrolo[3,2-c][1,2,4]triazolo[4,3-a]pyridin-7-yl)-2-((2R,5R)-5-methyl-2-(((R)-3-methylmorpholino)methyl)piperazin-1-yl)ethan-1-one]",320
3,"C[C@@H]1CN(CC(=O)N2CC(C)(C)c3c2cc(Cc2ccc(F)cc2)c2nn(CC(C)(C)O)c(=O)n32)[C@@H](CN2CC3CCC2CO3)CN1 (stereo partly drawn) [Compound 287, 6-(2-((2R,5R)-2-((2-oxa-5-azabicyclo[2.2.2]octan-5-yl)methyl)-5-methylpiperazin-1-yl)acetyl)-4-(4-fluorobenzyl)-2-(2-hydroxy-2-methylpropyl)-8,8-dimethyl-2,6,7,8-tetrahydro-1H-pyrrolo[2,3-e][1,2,4]triazolo[4,3-a]pyridin-1-one]",480
4,"Cc1nnc2c(Cc3ccc(F)cc3F)cc3c(n12)C(C)(C)CN3C(=O)CN1C[C@@H](C)NC[C@@H]1CN1CCOC[C@H]1C [Compound 156, 1-(4-(2,4-difluorobenzyl)-1,8,8-trimethyl-7,8-dihydro-6H-pyrrolo[2,3-e][1,2,4]triazolo[4,3-a]pyridin-6-yl)-2-((2R,5R)-5-methyl-2-(((R)-3-methylmorpholino)methyl)piperazin-1-yl)ethan-1-one]",1330
5,"C[C@@H]1CN(CC(=O)N2CC(C)(C)c3c2cc(Sc2ccc(F)cn2)c2ncnn32)[C@@H](CN2CCOC[C@H]2C)CN1 [Compound 211, 1-(4-((5-fluoropyridin-2-yl)thio)-8,8-dimethyl-7,8-dihydro-6H-pyrrolo[2,3-e][1,2,4]triazolo[1,5-a]pyridin-6-yl)-2-((2R,5R)-5-methyl-2-(((R)-3-methylmorpholino)methyl)piperazin-1-yl)ethan-1-one]",150
6,"C[C@@H]1CN(CC(=O)N2CC(C)(C)c3c2cc(Cc2ccc(F)cc2)c2nn(C[C@@H]4COCCO4)c(=O)n32)[C@@H](CN2CCOC[C@H]2C)CN1 [Compound 233, 2-(((R)-1,4-dioxan-2-yl)methyl)-4-(4-fluorobenzyl)-8,8-di methyl-6-(2-((2R,5R)-5-methyl-2-(((R)-3-methylmorpholino)methyl)piperazin-1-yl)acetyl)-2,6,7,8-tetrahydro-1H-pyrrolo[2,3-e][1,2,4]triazolo[4,3-a]pyridin-1-one]",260
7,"C[C@@H]1CN(CC(=O)N2CC(C)(C)c3c2cc(Cc2ccc(F)cc2)c2nn(CC(C)(C)O)c(=O)n32)[C@@H](CN2CCOCC2(C)C)CN1 [Compound 277, 6-(2-((2R,5R)-2-((3,3-dimethylmorpholino)methyl)-5-methylpiperazin-1-yl)acetyl)-4-(4-fluorobenzyl)-2-(2-hydroxy-2-methylpropyl)-8,8-dimethyl-2,6,7,8-tetrahydro-1H-pyrrolo[2,3-e][1,2,4]triazolo[4,3-a]pyridin-1-one]",67
8,"Cc1nc(C)c(Cc2cc3c(n4ncnc24)C(C)(C)CN3C(=O)CN2C[C@@H](C)NC[C@@H]2CN2CCOC[C@H]2C)s1 [Compound 158, 1-(4-((2,4-dimethylthiazol-5-yl)methyl)-8,8-dimethyl-7,8-dihydro-6H-pyrrolo[2,3-e][1,2,4]triazolo[1,5-a]pyridin-6-yl)-2-((2R,5R)-5-methyl-2-(((R)-3-methylmorpholino)methyl)piperazin-1-yl)ethan-1-one]",720
9,"C[C@@H]1CN(CC(=O)N2CC(C)(C)c3c2cc(Cc2ccc(F)cc2)c2nn(CC(N)=O)c(=O)n32)[C@@H](CN2CCOC[C@H]2C)CN1 [Compound 217, 2-(4-(4-fluorobenzyl)-8,8-dimethyl-6-(2-((2R,5R)-5-methyl-2-(((R)-3-methylmorpholino)methyl)piperazin-1-yl)acetyl)-1-oxo-7,8-dihydro-1H-pyrrolo[2,3-e][1,2,4]triazolo[4,3-a]pyridin-2(6H)-yl)acetamide]",350

# Other lines, results leading:
row,IC50 [nM],SMILES
1,2160,"C[C@@H]1CN(CC(=O)N2CC(C)(C)c3c2cc(Cc2ccc(F)cc2)c2nc(P(C)(C)=O)nn32)[C@@H](CN2CCOC[C@H]2C)CN1 [Compound 209, 1-(2-(dimethylphosphoryl)-4-(4-fluorobenzyl)-8,8-dimethyl-7,8-dihydro-6H-pyrrolo[2,3-e][1,2,4]triazolo[1,5-a]pyridin-6-yl)-2-((2R,5R)-5-methyl-2-(((R)-3-methylmorpholino)methyl)piperazin-1-yl)ethan-1-one]"
2,87,"C[C@@H]1CN(CC(=O)N2CC(C)(C)c3c2cc(Cc2ccc(F)cc2)c2ncnn32)[C@@H](CN2CCC(F)(F)C[C@H]2C)CN1 [Compound 75, 2-((2R,5R)-2-(((R)-4,4-difluoro-2-methylpiperidin-1-yl)methyl)-5-methylpiperazin-1-yl)-1-(4-(4-fluorobenzyl)-8,8-dimethyl-7,8-dihydro-6H-pyrrolo[2,3-e][1,2,4]triazolo[1,5-a]pyridin-6-yl)ethan-1-one]"
3,490,"C[C@@H]1CN(CC(=O)N2CC(C)(C)c3c2cc(Cc2ccc(F)cc2)c2cc(C(F)(F)F)nn32)[C@@H](CN2CCOC[C@H]2C)CN1 [Compound 150, 1-(4-(4-fluorobenzyl)-8,8-dimethyl-2-(trifluoromethyl)-7,8-dihydro-6H-pyrazolo[1,5-a]pyrrolo[2,3-e]pyridin-6-yl)-2-((2R,5R)-5-methyl-2-(((R)-3-methylmorpholino)methyl)piperazin-1-yl)ethan-1-one]"
4,> 10000,"C[C@@H]1CN(CC(=O)N2CC(C)(C)c3c2cc(Cc2ccc(F)cc2)c2nc(C(=O)O)nn32)[C@@H](CN2CCOC[C@H]2C)CN1 [Compound 197, 4-(4-fluorobenzyl)-8,8-dimethyl-6-(2-((2R,5R)-5-methyl-2-(((R)-3-methylmorpholino)methyl)piperazin-1-yl)acetyl)-7,8-dihydro-6H-pyrrolo[2,3-e][1,2,4]triazolo[1,5-a]pyridine-2-carboxylic acid]"
5,610,"CCc1nnc2c(Cc3ccc(F)cc3)cc3c(n12)C(C)(C)CN3C(=O)CN1C[C@@H](C)NC[C@@H]1CN1CCOC[C@H]1C [Compound 172, 1-(1-ethyl-4-(4-fluorobenzyl)-8,8-dimethyl-7,8-dihydro-6H-pyrrolo[2,3-e][1,2,4]triazolo[4,3-a]pyridin-6-yl)-2-((2R,5R)-5-methyl-2-(((R)-3-methylmorpholino)methyl)piperazin-1-yl)ethan-1-one]"
6,310,"C[C@@H]1CN(CC(=O)N2CC(C)(C)c3c2cc(Cc2ccc(F)cc2)c2nc(CS(C)(=O)=O)nn32)[C@@H](CN2CCOC[C@H]2C)CN1 [Compound 141, 1-(4-(4-fluorobenzyl)-8,8-dimethyl-2-((methylsulfonyl)methyl)-7,8-dihydro-6H-pyrrolo[2,3-e][1,2,4]triazolo[1,5-a]pyridin-6-yl)-2-((2R,5R)-5-methyl-2-(((R)-3-methylmorpholino)methyl)piperazin-1-yl)ethan-1-one]"
7,260,"C[C@@H]1CN(CC(=O)N2CC(C)(C)c3c2cc(Cc2ccc(F)cc2)c2ncsc32)[C@@H](CN2CCOC[C@H]2C)CN1 [Example 27, 1-(4-(4-fluorobenzyl)-8,8-dimethyl-7,8-dihydro-6H-thiazolo[5,4-e]indol-6-yl)-2-((2R,5R)-5-methyl-2-(((R)-3-methylmorpholino)methyl)piperazin-1-yl)ethan-1-one]"
8,190,"C[C@@H]1CN(CC(=O)N2CC(C)(C)c3c2cc(S(=O)(=O)c2ccc(F)cc2)c2ncnn32)[C@@H](CN2CCOC[C@H]2C)CN1 [Compound 176, 1-(4-((4-fluorophenyl)sulfonyl)-8,8-dimethyl-7,8-dihydro-6H-pyrrolo[2,3-e][1,2,4]triazolo[1,5-a]pyridin-6-yl)-2-((2R,5R)-5-methyl-2-(((R)-3-methylmorpholino)methyl)piperazin-1-yl)ethan-1-one]"
9,450,"C[C@@H]1CN(CC(=O)N2CC(C)(C)c3c2cc(Cc2ccc(F)cc2)c2nnc(C(N)=O)n32)[C@@H](CN2CCOC[C@H]2C)CN1 [Compound 145, 4-(4-fluorobenzyl)-8,8-dimethyl-6-(2-((2R,5R)-5-methyl-2-(((R)-3-methylmorpholino)methyl)piperazin-1-yl)acetyl)-7,8-dihydro-6H-pyrrolo[2,3-e][1,2,4]triazolo[4,3-a]pyridine-1-carboxamide]"
10,560,"C[C@@H]1CN(CC(=O)N2CC(C)(C)c3c2cc(Cc2ccc(F)cc2)c2ncnn32)C(CN2CCN(CC#N)C3CC32)CN1 (stereo in doubt) [Compound 213, 2-(5-(((2S,5R)-1-(2-(4-(4-fluorobenzyl)-8,8-dimethyl-7,8-di hydro-6H-pyrrolo[2,3-e][1,2,4]triazolo[1,5-a]pyridin-6-yl)-2-oxoethyl)-5-methylpiperazin-2-yl)methyl)-2,5-diazabicyclo[4.1.0]heptan-2-yl)acetonitrile]"
11,710,"C[C@@H]1CN(CC(=O)N2CC(C)(C)c3c2cc(C(=O)c2ccc(F)cc2)c2ncnn32)[C@@H](CN2CCOC[C@H]2C)CN1 [Compound 139, 1-(4-(4-fluorobenzoyl)-8,8-dimethyl-7,8-dihydro-6H-pyrrolo[2,3-e][1,2,4]triazolo[1,5-a]pyridin-6-yl)-2-((2R,5R)-5-methyl-2-(((R)-3-methylmorpholino)methyl)piperazin-1-yl)ethan-1-one]"
